Assay results: patent US20240423927A1, “COMPOSITIONS AND METHODS FOR USE IN IMMUNOTHERAPY” (INSTITUT CURIE, priority 2021, published 2024)

Legend:
[1] = test system: MCA-OVA tumor; experiment: Tumor growth monitoring in MCA-OVA tumor model; assay type: in vivo, C57BL/6J mice; conditions: Example 1; cGAMP-VLP 50 ng cGAMP s.c. three times, Imatinib 10 mg/kg i.p. days 6-10
[2] = test system: tumor-specific CD8 and CD4 T cell responses (PBMCs); experiment: Ex vivo stimulation assay: IFN-γ ELISPOT of PBMCs stimulated with OVA and p15 peptides; assay type: in vivo, C57BL/6J mice; conditions: Example 1, four days after third s.c. injection, cGAMP-VLP 50 ng cGAMP s.c., Imatinib 10 mg/kg i.p.
Source text: […] Mice were bled in the retro-orbital sinus and PBMCs were isolated from whole blood by lysing the red blood cells. […] Spots were developed using a mouse IFN-γ ELISPOT antibody (Diaclone) according to the manufacturer's instructions, and the number of spots enumerated using an ImmunoSpot analyzer.

[3] = test system: MCA-OVA tumor; experiment: Survival of treated MCA-OVA tumor-bearing mice; assay type: in vivo, C57BL/6J mice; conditions: Example 1; log-rank test; cGAMP-VLP 50 ng cGAMP s.c., Imatinib 10 mg/kg i.p.
[4] = test system: STING; conditions: comparative statement (hSTING vs mSTING; or vs cGAMP); cited from earlier work
[5] = target: STING (Homo sapiens, UniProt Q86WV6); conditions: compared with cGAMP, reporter assays; cited from earlier work
Chain of STING (Homo sapiens, UniProt Q86WV6) (Q86WV6 whole entry): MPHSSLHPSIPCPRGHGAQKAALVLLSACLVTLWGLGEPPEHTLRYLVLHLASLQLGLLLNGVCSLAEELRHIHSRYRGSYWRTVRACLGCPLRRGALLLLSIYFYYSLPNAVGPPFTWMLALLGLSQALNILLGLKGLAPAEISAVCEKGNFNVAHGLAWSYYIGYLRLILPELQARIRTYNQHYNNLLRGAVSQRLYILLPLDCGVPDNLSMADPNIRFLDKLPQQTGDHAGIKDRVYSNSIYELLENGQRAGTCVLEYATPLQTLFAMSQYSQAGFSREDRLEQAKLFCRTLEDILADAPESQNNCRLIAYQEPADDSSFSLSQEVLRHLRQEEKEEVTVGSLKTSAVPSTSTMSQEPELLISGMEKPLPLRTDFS

Compound	Tumor growth [1]	Tumor-specific T cell responses in peripheral blood (IFN-γ ELISPOT) [2]	Survival (death event: tumor size >2 cm^3) [3]	Affinity/binding to STING [4]	Potency for inducing type I IFN [5]
Cc1ccc(NC(=O)c2ccc(CN3CCN(C)CC3)cc2)cc1Nc1nccc(-c2cccnc2)n1 [Imatinib]	no effect on the tumor growth compared to control group	did not induce tumor-specific T cell responses compared to the PBS group	did not show survival benefit compared to PBS treatment	–	–
COc1c(O)cc2oc3cc(O)c(CC=C(C)C)c(O)c3c(=O)c2c1CC=C(C)C [α-mangostin]	–	–	–	higher affinity to human (h)STING than to mSTING	weaker potency for inducing type I IFN compared with cGAMP
Diaminobenzimidazole	–	–	–	enhanced binding to STING and cellular function as compared to cGAMP	–
